In ChEMBL document CHEMBL1201862, “PubChem BioAssay data set” (2004):
Active and inactive are the calls of the source.

What was measured:
[1] = A Cell Based Secondary Assay To Explore Cytotoxicity of Compounds that Sensitize Mycobacterium Tuberculosis to Beta-Lactam Antibiotics.; assay type: functional
[2] = target: T1, Calpain-2 catalytic subunit (Sus scrofa, UniProt P43367); test: pig calpain II inhibitor potency, dose response, biochemical, fluorogenic peptide substrate (AID 1420); assay type: functional
T1 sequence (P43367 whole entry): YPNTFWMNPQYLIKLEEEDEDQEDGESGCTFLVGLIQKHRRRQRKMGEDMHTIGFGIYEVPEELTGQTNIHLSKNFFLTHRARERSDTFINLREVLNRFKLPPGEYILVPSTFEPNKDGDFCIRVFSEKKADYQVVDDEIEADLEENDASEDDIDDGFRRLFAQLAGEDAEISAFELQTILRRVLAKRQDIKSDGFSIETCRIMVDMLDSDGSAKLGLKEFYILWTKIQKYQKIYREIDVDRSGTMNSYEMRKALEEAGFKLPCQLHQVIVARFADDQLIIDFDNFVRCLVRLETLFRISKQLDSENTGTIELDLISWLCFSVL

[3] = target: T2, DNA repair protein RAD52 homolog (Homo sapiens, UniProt P43351); assay type: functional, biochemical
T2 sequence (P43351 whole entry): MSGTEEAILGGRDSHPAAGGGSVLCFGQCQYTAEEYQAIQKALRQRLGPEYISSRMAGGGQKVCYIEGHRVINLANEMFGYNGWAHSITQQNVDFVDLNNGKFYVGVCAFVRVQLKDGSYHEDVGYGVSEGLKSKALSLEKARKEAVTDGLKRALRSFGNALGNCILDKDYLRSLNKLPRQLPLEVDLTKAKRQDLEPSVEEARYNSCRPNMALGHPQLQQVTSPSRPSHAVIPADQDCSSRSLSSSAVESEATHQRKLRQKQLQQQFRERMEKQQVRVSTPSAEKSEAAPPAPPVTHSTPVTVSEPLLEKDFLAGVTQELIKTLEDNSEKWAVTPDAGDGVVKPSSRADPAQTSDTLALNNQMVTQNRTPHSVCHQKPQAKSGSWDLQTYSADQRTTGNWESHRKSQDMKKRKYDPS

[4] = target: T3, DNA repair and recombination protein RAD54-like (Homo sapiens, UniProt Q92698); test: inhibitors of human RAD54 branch migration, confirmation, biochemical, fluorescence, cherry-picked samples, dose series (AID 651657); assay type: functional
T3 sequence (Q92698 whole entry): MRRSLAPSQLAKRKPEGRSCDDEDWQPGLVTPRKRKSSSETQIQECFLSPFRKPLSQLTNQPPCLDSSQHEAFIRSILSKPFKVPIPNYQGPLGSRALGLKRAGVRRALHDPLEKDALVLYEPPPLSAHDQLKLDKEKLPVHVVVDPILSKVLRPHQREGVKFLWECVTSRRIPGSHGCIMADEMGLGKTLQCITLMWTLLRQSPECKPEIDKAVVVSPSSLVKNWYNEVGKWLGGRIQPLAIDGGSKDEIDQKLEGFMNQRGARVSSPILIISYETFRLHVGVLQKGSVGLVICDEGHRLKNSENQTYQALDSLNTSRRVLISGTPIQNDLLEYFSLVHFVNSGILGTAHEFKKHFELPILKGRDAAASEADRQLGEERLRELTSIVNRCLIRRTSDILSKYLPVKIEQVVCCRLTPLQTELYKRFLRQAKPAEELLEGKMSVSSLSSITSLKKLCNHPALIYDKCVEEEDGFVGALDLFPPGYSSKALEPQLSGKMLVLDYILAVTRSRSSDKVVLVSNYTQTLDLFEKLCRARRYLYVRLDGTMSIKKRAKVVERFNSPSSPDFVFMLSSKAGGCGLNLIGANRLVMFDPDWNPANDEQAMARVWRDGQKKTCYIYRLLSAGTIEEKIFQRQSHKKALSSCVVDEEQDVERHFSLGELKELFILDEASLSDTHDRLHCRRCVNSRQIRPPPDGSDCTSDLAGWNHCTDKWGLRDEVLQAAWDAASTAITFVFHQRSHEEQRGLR

BJ [5] = test: cells; assay type: functional, cell-based; conditions: Homo sapiens
BJ [6] = test: cytotoxicity toward BJ-TERT fibroblasts, dose response, cell-based, RAS-independent, luminescence (AID 1933); assay type: functional; conditions: Homo sapiens
[7] = cytotoxicity toward DRD oncogenic fibroblasts, dose response, cell-based, non-viral oncogenic, luminescence (AID 1934); assay type: functional; conditions: Homo sapiens
BJ [8] = test: cytotoxicity toward BJ-TERT-LT-ST fibroblasts, dose response, cell-based, RAS-independent, luminescence (AID 1935); assay type: functional; conditions: Homo sapiens;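 also: BJ fibroblasts immortalized with TERT plus LT and ST oncogenes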
Streptokinase A = target: T4, Streptokinase A (Streptococcus pyogenes serotype M1, UniProt P10520); test: S. pyogenes streptokinase expression inhibitors, potency, dose response, plasminogen activation absorbance, OD405 (AID 1914); assay type: functional, Streptococcus pyogenes M1 GAS;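 also: secreted streptokinase activity via plasminogen activation per viability signal from cell pellet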
T4 sequence (P10520 whole entry): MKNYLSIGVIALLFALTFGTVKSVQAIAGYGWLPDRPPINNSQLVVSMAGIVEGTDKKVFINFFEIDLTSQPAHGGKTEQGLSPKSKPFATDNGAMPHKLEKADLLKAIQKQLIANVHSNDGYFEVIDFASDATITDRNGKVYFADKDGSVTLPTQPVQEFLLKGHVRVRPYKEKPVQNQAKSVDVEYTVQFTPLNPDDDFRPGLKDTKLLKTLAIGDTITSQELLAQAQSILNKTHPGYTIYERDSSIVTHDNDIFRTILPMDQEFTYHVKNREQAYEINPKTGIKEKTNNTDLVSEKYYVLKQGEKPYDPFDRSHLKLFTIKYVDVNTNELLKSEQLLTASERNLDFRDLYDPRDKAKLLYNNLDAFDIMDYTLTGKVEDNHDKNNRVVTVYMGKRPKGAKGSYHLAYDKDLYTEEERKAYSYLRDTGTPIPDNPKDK

[9] = tested on: Streptococcus sp. 'group A'; test: growth inhibition of control SK(-) GAS strain, dose response, counter-screen for streptokinase expression inhibitor project, luminescence, kanamycin, BacTiterGlo, confirmation (AID 1900); assay type: functional, organism-based
[10] = Luminescence Cell-Based Dose Retest to Confirm Inhibitors of Cancer Stem Cells. [Related pubchem assays (depositor defined):AID2717, AID2721]; assay type: functional; conditions: Homo sapiens
Streptococcus = test: Group A Streptococcus viability loss, dose response, counter-screen for streptokinase expression inhibitor project, luminescence, BacTiterGlo (AID 1915); assay type: functional, organism-based;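 also: potency for reduction of bacterial viability or growth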
[11] = Luminescence-based cell-based high throughput dose response assay to identify activators of the DAF-12 from the parasite S. stercoralis (ssDAF-12).; assay type: functional

COc1ccc(/C=C2\N=C(SC)N(c3ccccc3OC)C2=O)cc1
CC50 [1]: 37 µM (active)

CCN(CC)c1ccc(N/C=C2\C(=O)NC(=O)N(c3ccc(Cl)cc3)C2=O)cc1
CC50 [1]: > 40 µM (active)

Cc1ccc(OCc2nnc(S)n2C2CCCCC2)cc1
IC50 [2]: 38.6 µM (not active)

Cc1cccn2c(=O)c3cc(C(=O)NC4CCCC4)c(=N)n(CCCN4CCOCC4)c3nc12
AC50 [3]: 9.37 µM (active) | AC50 [4]: 21.5 µM (active)

CCN1C(=O)/C(=C\c2cn(-c3ccccc3)nc2-c2cccnc2)SC1=S
EC50 (BJ [5]): > 150 µM (not active) | IC50 [2]: > 50 µM (not active) | EC50 (BJ [6]): 7.41 µM (inconclusive) | EC50 [7]: 17.9 µM (active) | EC50 (BJ [8]): > 150 µM (inconclusive)

COc1ccc(C(=O)C23CC4CC(C2)CC(C(=O)c2ccc(OC)cc2)(C4)C3)cc1
IC50 [2]: < 0.4 µM (not active)

COc1ccc(N2C(=O)N(Cc3ccc(C)cc3)c3ccccc3S2(=O)=O)cc1
IC50 [2]: 18.5 µM (not active)

COc1c(F)c(F)c(C(=O)Nc2c(C)cc(Br)cc2C)c(F)c1F
CC50 [1]: 35.6 µM (active)

C=C(C)C1Cc2c(C)nn(-c3cccc4ccccc34)c2C1 (stereo unspecified)
EC50 (Streptokinase A): 16.8 µM (active) | CC50 [1]: > 40 µM (active) | EC50 [9]: 7.08 µM (active) | AC50 [10]: 6.69 µM (active) | EC50 (Streptococcus): > 150 µM (not active)

COc1cccc(-c2cc(NC=O)c3ncc(-c4cccc(C(=O)NCCN(C)C)c4)n3c2)c1
AC50 [3]: 3.43 µM (active) | AC50 [4]: 22.3 µM (active)

Cc1ccsc1/C=N/Nc1nc2ccccc2s1
IC50 [11]: > 67.6 µM (inactive)
